Patent publication US5610185A, “Method for the treatment of hyperproliferative epithelial skin diseases by topical application of hydroxylated aromatic protein cross-linking compounds” (The United States of America as represented by the …, priority 1995, dated 1997)
Entries after “also recorded” stand apart in the source; their conditions may differ.

Assays:
[1] = system: SQCC-Y1 human squamous carcinoma cells; assay: Cornified envelope (cross-linked protein) assay, SQCC-Y1 cells; assay type: cell-based; details: SQCC-Y1, 48 h, 0.1-1 mM
[2] = system: SV 40 infected human keratinocytes; assay: Cornified envelope (cross-linked protein) assay, SV 40 infected keratinocytes; assay type: cell-based; details: 48 h, 0.1-1 mM
Description: FIG. 1. MC Increases Cross-linked Protein in Epidermal Cell Lines. Black squares represent HPV 18 human epithelial keratinocytes; black circles represent SV 40 infected human keratinocytes; black triangles represent (SQCC-Y1) cells; white triangles represent (SP-1) benign tumor mouse keratinocytes; white squares represent (308 cells) benign mouse keratinocytes; and white circles represent (I-7) cells mouse squamous cell carcinoma.
Primary mouse keratinocytes were isolated from BALB/c newborn mouse skin. Primary keratinocytes, the benign neoplastic keratinocyte cell lines 308 and SP-1 (Strickland et al, Cancer Res., 48, 165-169, 1988) and the mouse squamous cell carcinoma line 1-7 (Greenhalgh et al., Proc. Natl. Acad. Sci., 87, 643-647, 1990) were grown in Eagle's minimal essential medium with 8% fetal calf serum (FCS) (chelexed) and penicillin 20 iu/ml, streptomycin 20 ug/ml (P/S). Unless otherwise indicated, the Ca^2+ concentration in medium was adjusted to 0.05 mM (Hennings et al., Cells, 19, 245-254, 1980). […]
Cells were incubated with MC for 48 hours, then cross-linked protein was isolated and measured as described in Example 1.
The assay measures insoluble cross-linked protein envelopes as described (Hough-Monroe et al. Analytical biochem., 199, 25-28, 1991), with modifications as follows. […] Absorbance of eluate was measured on a Titertek plate reader at 600 nm.

NIH 3T3 fibroblasts = assay: Protein envelope formation in NIH 3T3 fibroblasts; assay type: cell-based
[3] = system: normal human epidermal keratinocytes from foreskin; assay: Cross-linking in primary normal human epidermal keratinocytes; assay type: cell-based; details: Keratinocyte, read-out: concentration for response in cross-linking
Description: The increased sensitivity of mouse primary keratinocytes for the cross-linking effect is not related to the normal phenotype. […] Hydroxylated aromatic protein crosslinking compounds induce the cross-linking of cell proteins into cornified envelope-like structures, causing cell death by a non-biological mechanism which emulates the normal differentiation program of epidermal keratinocytes. In addition to their growth inhibitory properties, the unique protein cross-linking ability of the class of compounds described in the instant invention proffers a new mechanism for the topical treatment of hyperproliferative diseases of the skin.

[4] = system: primary mouse keratinocytes; assay: Growth inhibition (cell count), primary mouse keratinocytes; assay type: cell-based; details: Keratinocyte, 72 h, 25 μM MC, 3 days, read-out: cells that continued to grow
Procedure: FIG. 4. Cross-linked Protein Production vs Growth Inhibition in Mouse Primary Keratinocytes. Cell growth is represented by black squares and cross-linked protein production by white squares. Results are ±SD (n=3) of one experiment, representative of three.
Cells were seeded at low density and were treated with MC for 3 days. Cells were then counted and increase in cell number was compared to untreated controls, or cells were processed for cross-linked protein. (FIG. 4) Protein cross-linking was rapid, commencing within 4 hours at 1 mM in mouse primary keratinocytes, (FIG. 3A) and was accompanied by cell death, as measured by the MTT assay (FIG. 3B).

[5] = system: A431 human epidermoid carcinoma cells; assay: Growth inhibition (cell count), A431 cells; assay type: cell-based; details: 75 μM MC, 3 days
Procedure: FIG. 5. Cross-linked Protein Production vs Growth Inhibition in A431 ([…]) Cells. Cell growth is represented by black circles and crosslinked protein production by white circles. Results are ±SD (n=3) of one experiment, representative of three.
Cells were seeded at low density and were treated with MC for 3 days. Cells were then counted and increase in cell number was compared to untreated controls, or cells were processed for cross-linked protein (FIG. 5).

[6] = system: SP-1 cell tumors grafted on athymic nude mice; assay: Grafted SP-1 cell tumor formation in nude mice; assay type: in vivo, mouse; details: topical MC, 1 mM and 100 mM; twice weekly for two weeks or 5 days each week for three weeks
Procedure: FIGS. 10A and 10B. […] Numbers above bars denote the number of animals with tumors/the number of animals in the group. In panel A, MC was applied twice weekly for two weeks. In panel B, MC was applied on 5 days each week for three weeks.
Skin grafting was performed on athymic nude mice using 0.5×10^6 SP-1 cells with 8×10^6 newborn SENCAR mouse dermal fibroblasts as described (Strickland et al., Carcinogenesis, 14, 205, 1993). Domes (plastic covers placed over the site of skin grafting) were removed one week after grafting, and after a further week, topical application of MC commenced. The agent was applied in 25 ul 90% acetone, 10% DMSO vehicle. Weekly, tumor measurements were recorded up to 5 weeks after grafting.
Grafting was performed as described above. Tumors were measured using calipers at the termination of the experiment and tumors were fixed and sections were taken to confirm the tumor phenotype by microscopy.

COC(=O)C=Cc1cc(O)ccc1O [MC, methyl 2,5-dihydroxycinnamate]
cross-linked protein (envelope production) [1]: induced crosslinked envelope production; also recorded: increased cross-linked protein in a dose-dependent manner
cross-linked protein (envelope production) [2]: induced crosslinked envelope production; also recorded: increased cross-linked protein in a dose-dependent manner
effect of DTT on cross-linking by MC (NIH 3T3 fibroblasts; 3T3 cells, simultaneous DTT 20 mM, 37° and 4° C.): prevented cross-linking
protein envelopes induced in NIH 3T3 fibroblasts (NIH 3T3 fibroblasts; even when incubated at 4° C. in phosphate buffered saline): induced protein envelopes
minimal effective concentration [3]: ≥ 250 µM
activity at 25 µM [4]: 20%
inhibition of cell growth [5]: inhibited cell growth significantly
growth / formation of grafted SP-1 tumors [6]: inhibited the growth of tumors; also recorded: inhibits Grafted SP-1 cell Tumor Formation; also recorded: inhibit tumor formation
